Test results as given in patent US20150202203A1, “Method of Treating Gastrointestinal Stromal Tumors” (Novartis AG, priority 2012, published 2015).
“Also recorded” adds a separate entry of the source. Read-outs that look alike come from different tables or passages of the source.

Columns and labels:
GIST-T1 cells = test: CellTiter-Glo cell viability assay, GIST-T1
Text: (§1) GIST882 was established from an untreated human GIST with a homozygous missense mutation in KIT exon 13, encoding a K642E mutant KIT protein (Tuveson D A, Willis N A, et al. Oncogene 2001; 20: 5054-5058). […] GIST48 has a primary homozygous exon 11 missense mutation (V560D) and a secondary heterozygous exon 17 missense mutation (D820A). GIST430 has a primary heterozygous exon 11 in-frame deletion and a secondary heterozygous exon 13 missense mutation (V654A). […] It was established from a metastatic human GIST with a heterozygous deletion of 57 bases in exon 11 of KIT (Taguchi T, Sonobe H, Toyonaga S, et al. Lab Invest 2002; 82: 663-665).
(§2) 10,000 cells suspended in 80 μl media were seeded into each well of a 96-well cell-culture plate and grown for 24 hours prior to treatment. 10 μl of 60 μg/mL heparin (Sigma Catalog # H3149) was added to each well, and then 10 μl of 50 μg/mL FGF2 (R&D Catalog #233-FB/CF) or media was added to each well of the plates. 10 μl of each of the compound dilutions described above and 10 μl of media were added to wells to a final volume 120 μl such that all pair-wise combinations as well as the single agents were represented. Cells were incubated for 72 hrs at 37° C. in a 5% CO2 incubator following compound addition. Cell proliferation was measured using the CellTiter-Glo luminescent cell viability assay (Promega catalog # G755B) and Victor4 plate reader (Perkin Elmer).

KIT = KIT inhibition by Western blot in GIST cell lines; format: cell-based, human; conditions: GIST-T1, GIST882 and GIST48; compared with dovitinib
Experimental: Protein lysates were prepared from cell monalayers using RIPA buffer (Cell Signaling Technology Catalog #9806) according to the procedure described by the manufacturer. Antibod-ies to detect phospho-KIT (Catalog #3073S), total KIT (Catalog #3308), phospho-AKT S473 (Catalog #4058), total AKT (Catalog #9272), phospho-ERK (Catalog #9101), total ERK (Catalog #9107) and phospho-FRS2 (Catalog #3864) were purchased from Cell Signaling Technology. Antibody to GAPDH (Catalog # MAB374) was purchased from Millipore and anti-FRS2(H-91) (Catalog #sc-8318) from Santa Cruz. Bound antibody was detected using the LI-COR Odyssey Infrared Imaging System.

GIST = conditions: cited from earlier work
GIST430 cells = conditions: Imatinib combined with Dovitinib, 72 hrs
Experimental: GIST-T1 was obtained from Kochi Medical School, Kochi, Japan.
GIST882 cells were cultured in RPMI-1640 (ATCC Catalog #30-2001) supplemented with 15% FBS and 1% L-glutamine, GIST48 cells in F10 (Gibco/Invitrogen Catalog #11550-043) supplemented with 15% FBS, 0.5% Mito+ (BD Bioscience Catalog #355006), 1% BPE (BD Bioscience/Fisher Catalog#354123) and 1% L-glutamine, GIST430 cells in IMEM (Gib-co/Invitrogen Catalog #12440-053) supplemented with 15% FBS and 1% L-glutamine, and GIST-T1 cells in DMEM (Gibco/Invitrogen Catalog #11965) supplemented with 10% FBS.
10,000 cells suspended in 80 μl media were seeded into each well of a 96-well cell-culture plate and grown for 24 hours prior to treatment. 10 μl of 60 μg/mL heparin (Sigma Catalog # H3149) was added to each well, and then 10 μl of 50 μg/mL FGF2 (R&D Catalog #233-FB/CF) or media was added to each well of the plates. 10 μl of each of the compound dilutions described above and 10 μl of media were added to wells to a […] such that all pair-wise combinations as well as the single agents were represented.

[1] = absence of added FGF2, single agent
[2] = presence of added FGF2, single agent
[3] = Imatinib combined with Dovitinib, 72 hrs

Text for GIST882 cells: as §1, §2

Row | Compound | growth inhibition (GIST-T1 cells; [1]) | growth inhibition (GIST-T1 cells; [2]) | KIT inhibition (Western blot) (KIT) | progression-free survival (PFS) (GIST; 800 mg/day compared to 400 mg/day, advanced GIST harboring KIT exon 9 mutations) | RFS and overall survival (GIST; adjuvant 400 mg once daily, 36 months vs 12 months (SSGXVIII/AIO)) | recurrence-free survival (RFS) (GIST; adjuvant 400 mg/day for 12 months vs placebo, after complete resection (ACOSOGZ9001)) | growth inhibition (GIST882 cells; [1]) | growth inhibition (GIST882 cells; [2]) | growth inhibition (GIST-T1 cells; absence of added FGF2, single agent, listed as nilotinib) | GI50 shift in the presence of added FGF2 (GIST-T1 cells; with vs without added FGF2) | GI50 shift in the presence of added FGF2 (GIST882 cells; with vs without added FGF2) | Combination Index for 70% inhibition of GIST cell proliferation (GIST430 cells) | Synergy Score for inhibition of GIST cell proliferation (GIST430 cells) | Combination Index for 70% inhibition of GIST cell proliferation (GIST-T1 cells; [3]) | Synergy Score for inhibition of GIST cell proliferation (GIST-T1 cells; [3]) | growth inhibition (GIST-T1 cells; presence of added FGF2, single agent, listed as Dovtinib) | Combination Index for 70% inhibition of GIST cell proliferation (GIST882 cells; [3]) | Synergy Score for inhibition of GIST cell proliferation (GIST882 cells; [3])
1 | Cc1ccc(NC(=O)c2ccc(CN3CCN(C)CC3)cc2)cc1Nc1nccc(-c2cccnc2)n1 [Imatinib, 4-(4-methylpiperazin-1-ylmethyl)-N-[4-methyl-3-(4-(pyridin-3-yl)pyrimidin-2-ylamino)phenyl]-benzamide] | efficacious | less sensitive | more potent KIT inhibitor than dovitinib | significantly improves | superior to 12 months | significantly prolonged RFS | efficacious | less sensitive | – | – | – | – | – | – | – | – | – | –
2 | Cc1cn(-c2cc(NC(=O)c3ccc(C)c(Nc4nccc(-c5cccnc5)n4)c3)cc(C(F)(F)F)c2)cn1 [Nilotinib, 4-methyl-3-[[4-(3-pyridinyl)-2-pyrimidinyl]amino]-N-[5-(4-methyl-1H-imidazol-1-yl)-3-(trifluoromethyl)phenyl]benzamide] | inhibits growth of GIST-T1 cells | less sensitive; also recorded: significantly decreased | – | – | – | – | sensitive to KIT inhibition | less sensitive | sensitive to KIT inhibition | greater than 10 fold | greater than 10 fold | – | – | – | – | – | – | –
3 | CN1CCN(c2ccc3nc(-c4c(N)c5c(F)cccc5[nH]c4=O)[nH]c3c2)CC1 [Dovitinib, 4-amino-5-fluoro-3-[6-(4-methylpiperazin-1-yl)-1H-benzimidazol-2-yl]quinolin-2(1H)-one] | effective | restores maximum growth inhibition; also recorded: maximum inhibition was restored to levels comparable to the absence of FGF2 | – | – | – | – | effective | restores maximum growth inhibition; also recorded: maximum inhibition was restored to levels comparable to the absence of FGF2 | – | – | – | 0.624 | 0.635 | 0.835 | 0.422 | same level of maximum inhibition in the presence or absence of added FGF2 | 0.965 | 0.321
